Among the data in ChEMBL document CHEMBL5726510, “MK2 inhibitors and uses thereof” (2017) are IC50 values, retold here.

A value given as a limit tells only on which side of the number the result lay.

The target of this assay is MAP kinase-activated protein kinase 2 (Homo sapiens, UniProt P49137). In words: Mass Spectrometry Assay: Compounds I-1 through I-50 of the invention were assayed in a mass spectrometric assay to measure their ability to covalently modify MK2 protein. The procedure for this assay follows. Intact MK2 protein (Invitrogen, Cat. No. PR5320A) was incubated for 60 minutes at room temperature with a 10-fold excess of test compound to protein. Aliquots of the resulting mixture (6 μL ….
MAP kinase-activated protein kinase 2, sequence (P49137 whole entry): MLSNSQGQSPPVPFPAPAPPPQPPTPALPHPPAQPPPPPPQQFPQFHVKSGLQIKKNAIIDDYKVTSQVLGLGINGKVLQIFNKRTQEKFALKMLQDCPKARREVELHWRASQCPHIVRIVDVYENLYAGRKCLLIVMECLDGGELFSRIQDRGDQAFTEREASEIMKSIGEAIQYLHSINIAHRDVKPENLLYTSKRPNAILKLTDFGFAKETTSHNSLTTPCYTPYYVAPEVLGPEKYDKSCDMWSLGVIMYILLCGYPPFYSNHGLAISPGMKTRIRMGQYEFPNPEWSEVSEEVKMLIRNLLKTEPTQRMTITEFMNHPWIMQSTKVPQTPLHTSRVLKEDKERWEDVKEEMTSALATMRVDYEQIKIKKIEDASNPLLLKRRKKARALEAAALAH

Take `C[C@@H]1CNc2c(sc3ccc4nc(Nc5nccc(Cl)n5)ccc4c23)C(=O)N1`: the IC50 (usually the point on the concentration scale where inhibition reaches its midpoint) was above 1000 nM.

As to `CN(C)C[C@@H]1CNc2c(sc3ccc4nc(Nc5cc(F)ncn5)ccc4c23)C(=O)N1`, the IC50 was above 1000 nM.

As for `C[C@@H]1CNc2c(sc3ccc4nc(Nc5nc(Cl)ncc5C(=O)NC5COC5)ccc4c23)C(=O)N1`, the IC50 is below 100 nM.

Turning to `C[C@@H]1CNc2c(sc3ccc4nc(Oc5cc(CNC(C)(C)C)nc(Cl)n5)ccc4c23)C(=O)N1`, the IC50 was below 100 nM.

Take `C[C@@H]1CNc2c(sc3ccc4nc(Nc5nc(Cl)ncc5C(=O)NC5CCN(C)CC5)ccc4c23)C(=O)N1`: the IC50 is below 100 nM.

Take `C[C@@H]1CNc2c(sc3ccc4nc(Nc5nc(Cl)ncc5C(=O)NC5CC5)ccc4c23)C(=O)N1`: the IC50 is below 100 nM.
